Measurements from ChEMBL document CHEMBL5244260, “Aldose reductase and protein tyrosine phosphatase 1B inhibitors as a promising therapeutic approach for diabetes mellitus” (Eur J Med Chem, 2020).

Key:
[1] = target: Aldo-keto reductase family 1 member B1 (Sus scrofa, UniProt P80276); assay: Inhibition of ALR2 in pig lens using D,L-glyceraldehyde as substrate preincubated for 4 mins in presence of NADPH followed by substrate addition and measured after 4 mins by spectrophotometric assay; format: tissue-based
[2] = Inhibition of human recombinant ALR1 expressed in Escherichia coli by Coomassie reagent assay
[3] = Inhibition of ALR2 in Wistar rat lens using D,L-glyceraldehyde as substrate preincubated for 10 mins in presence of NADPH followed by substrate addition and measured after 5 mins by spectrophotometric assay; format: tissue-based
[4] = target: T1, Aldo-keto reductase family 1 member B1 (Homo sapiens, UniProt P15121); assay: Inhibition of human ALR2 assessed as inhibition constant
[5] = target: T2, Tyrosine-protein phosphatase non-receptor type 2 (Homo sapiens, UniProt P17706); assay: Inhibition of Flag-tagged human TCPTP (1 to 296 residues) expressed in Escherichia coli BL21 using FDP as substrate
T2 sequence (P17706 whole entry): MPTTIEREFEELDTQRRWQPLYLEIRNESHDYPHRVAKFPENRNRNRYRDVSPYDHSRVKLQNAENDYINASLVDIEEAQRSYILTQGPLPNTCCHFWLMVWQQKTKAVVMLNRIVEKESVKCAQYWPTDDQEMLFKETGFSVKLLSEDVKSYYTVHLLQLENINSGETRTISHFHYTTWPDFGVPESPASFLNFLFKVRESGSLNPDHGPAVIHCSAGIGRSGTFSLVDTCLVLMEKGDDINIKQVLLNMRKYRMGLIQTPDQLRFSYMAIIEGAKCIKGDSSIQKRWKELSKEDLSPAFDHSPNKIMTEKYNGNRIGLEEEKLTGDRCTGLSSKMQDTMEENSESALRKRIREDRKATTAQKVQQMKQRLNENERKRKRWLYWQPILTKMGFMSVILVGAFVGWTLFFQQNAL

[6] = target: T3, Tyrosine-protein phosphatase non-receptor type 1 (Homo sapiens, UniProt P18031); assay: Inhibition of Flag-tagged human PTP1B (1 to 298 residues) expressed in Escherichia coli BL21 using FDP as substrate
T3 sequence (P18031 whole entry): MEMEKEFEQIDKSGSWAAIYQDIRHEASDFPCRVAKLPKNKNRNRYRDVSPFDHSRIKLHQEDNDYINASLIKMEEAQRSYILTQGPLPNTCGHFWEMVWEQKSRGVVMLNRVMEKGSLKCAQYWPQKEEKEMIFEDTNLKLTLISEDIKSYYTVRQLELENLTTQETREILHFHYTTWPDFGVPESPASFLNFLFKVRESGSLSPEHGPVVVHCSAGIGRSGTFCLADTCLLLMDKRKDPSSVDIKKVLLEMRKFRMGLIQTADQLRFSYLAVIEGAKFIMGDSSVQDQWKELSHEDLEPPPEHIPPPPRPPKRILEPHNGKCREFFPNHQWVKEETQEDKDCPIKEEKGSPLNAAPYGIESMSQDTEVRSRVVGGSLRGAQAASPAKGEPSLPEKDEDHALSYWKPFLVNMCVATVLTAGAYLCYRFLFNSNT

[7] = target: T1, Aldo-keto reductase family 1 member B1; assay: Inhibition of Aldose reductase (unknown origin)
[8] = organism: Homo sapiens; assay: Selectivity ratio of Ki for PTP1B (unknown origin) to Ki for LAR (unknown origin)
[9] = organism: Homo sapiens; assay: Selectivity ratio of Ki for PTP1B (unknown origin) to Ki for PTPalpha (unknown origin)
[10] = target: T3, Tyrosine-protein phosphatase non-receptor type 1; assay: Inhibition of PTP1B (1 to 321 residues) (unknown origin) expressed in Escherichia coli BL21 assessed as inhibition constant using pNPP as substrate incubated for 2 to 3 min by spectrophotometry analysis
[11] = organism: Homo sapiens; assay: Selectivity ratio of Ki for PTP1B (unknown origin) to Ki for TCPTP (unknown origin)
[12] = target: T3, Tyrosine-protein phosphatase non-receptor type 1; assay: Inhibition of PTP1B (unknown origin) assessed as inhibition constant
[13] = target: T1, Aldo-keto reductase family 1 member B1; assay: Inhibition of human Aldose reductase using glyceraldehyde as substrate preincubated for 5 mins in presence of NADPH followed by substrate addition and measured after 3 mins by UV-visible spectrophotometric assay
[14] = target: T4, Aldo-keto reductase family 1 member B1 (Rattus norvegicus, UniProt P07943); assay: Inhibition of recombinant Aldose reductase in rat lens using D,L-glyceraldehyde as substrate in presence of NADPH measured after 4 mins by spectrophotometric assay; format: tissue-based
[15] = target: T4, Aldo-keto reductase family 1 member B1; assay: Inhibition of Aldose reductase in rat lens using D,L-glyceraldehyde as substrate in presence of NADPH by spectrophotometric assay; format: tissue-based
[16] = Inhibition of ALR2 in Wistar rat using D,L-glyceraldehyde as substrate preincubated for 10 mins in presence of NADPH followed by substrate addition and measured after 4 mins by spectrophotometric assay
[17] = target: T1, Aldo-keto reductase family 1 member B1; assay: Inhibition of Aldose reductase in human muscle tissue using D,L-glyceraldehyde as substrate in presence of NADPH by spectrophotometric assay; format: tissue-based
[18] = target: T4, Aldo-keto reductase family 1 member B1; assay: Inhibition of ALR in Fischer-344 rat lens using D,L-glyceraldehyde as substrate in presence of NADPH measured after 3 mins by spectrophotometric assay; format: tissue-based
[19] = target: T3, Tyrosine-protein phosphatase non-receptor type 1; assay: Inhibition of human PTP1B using pNPP as substrate incubated for 30 min
[20] = target: T1, Aldo-keto reductase family 1 member B1; assay: Inhibition of human ALR2 expressed in Escherichia coli BL21 (DE3) assessed as inhibition constant using D,L-glyceraldehyde as substrate in presence of NADPH by Michaelis-Menten analysis
[21] = target: Receptor-type tyrosine-protein phosphatase F (Rattus norvegicus, UniProt Q64604); assay: Inhibition of rat recombinant LAR expressed in Escherichia coli assessed as inhibition constant using pNPP as substrate incubated for 5 mins by […]
Chain of Receptor-type tyrosine-protein phosphatase F (Q64604 whole entry): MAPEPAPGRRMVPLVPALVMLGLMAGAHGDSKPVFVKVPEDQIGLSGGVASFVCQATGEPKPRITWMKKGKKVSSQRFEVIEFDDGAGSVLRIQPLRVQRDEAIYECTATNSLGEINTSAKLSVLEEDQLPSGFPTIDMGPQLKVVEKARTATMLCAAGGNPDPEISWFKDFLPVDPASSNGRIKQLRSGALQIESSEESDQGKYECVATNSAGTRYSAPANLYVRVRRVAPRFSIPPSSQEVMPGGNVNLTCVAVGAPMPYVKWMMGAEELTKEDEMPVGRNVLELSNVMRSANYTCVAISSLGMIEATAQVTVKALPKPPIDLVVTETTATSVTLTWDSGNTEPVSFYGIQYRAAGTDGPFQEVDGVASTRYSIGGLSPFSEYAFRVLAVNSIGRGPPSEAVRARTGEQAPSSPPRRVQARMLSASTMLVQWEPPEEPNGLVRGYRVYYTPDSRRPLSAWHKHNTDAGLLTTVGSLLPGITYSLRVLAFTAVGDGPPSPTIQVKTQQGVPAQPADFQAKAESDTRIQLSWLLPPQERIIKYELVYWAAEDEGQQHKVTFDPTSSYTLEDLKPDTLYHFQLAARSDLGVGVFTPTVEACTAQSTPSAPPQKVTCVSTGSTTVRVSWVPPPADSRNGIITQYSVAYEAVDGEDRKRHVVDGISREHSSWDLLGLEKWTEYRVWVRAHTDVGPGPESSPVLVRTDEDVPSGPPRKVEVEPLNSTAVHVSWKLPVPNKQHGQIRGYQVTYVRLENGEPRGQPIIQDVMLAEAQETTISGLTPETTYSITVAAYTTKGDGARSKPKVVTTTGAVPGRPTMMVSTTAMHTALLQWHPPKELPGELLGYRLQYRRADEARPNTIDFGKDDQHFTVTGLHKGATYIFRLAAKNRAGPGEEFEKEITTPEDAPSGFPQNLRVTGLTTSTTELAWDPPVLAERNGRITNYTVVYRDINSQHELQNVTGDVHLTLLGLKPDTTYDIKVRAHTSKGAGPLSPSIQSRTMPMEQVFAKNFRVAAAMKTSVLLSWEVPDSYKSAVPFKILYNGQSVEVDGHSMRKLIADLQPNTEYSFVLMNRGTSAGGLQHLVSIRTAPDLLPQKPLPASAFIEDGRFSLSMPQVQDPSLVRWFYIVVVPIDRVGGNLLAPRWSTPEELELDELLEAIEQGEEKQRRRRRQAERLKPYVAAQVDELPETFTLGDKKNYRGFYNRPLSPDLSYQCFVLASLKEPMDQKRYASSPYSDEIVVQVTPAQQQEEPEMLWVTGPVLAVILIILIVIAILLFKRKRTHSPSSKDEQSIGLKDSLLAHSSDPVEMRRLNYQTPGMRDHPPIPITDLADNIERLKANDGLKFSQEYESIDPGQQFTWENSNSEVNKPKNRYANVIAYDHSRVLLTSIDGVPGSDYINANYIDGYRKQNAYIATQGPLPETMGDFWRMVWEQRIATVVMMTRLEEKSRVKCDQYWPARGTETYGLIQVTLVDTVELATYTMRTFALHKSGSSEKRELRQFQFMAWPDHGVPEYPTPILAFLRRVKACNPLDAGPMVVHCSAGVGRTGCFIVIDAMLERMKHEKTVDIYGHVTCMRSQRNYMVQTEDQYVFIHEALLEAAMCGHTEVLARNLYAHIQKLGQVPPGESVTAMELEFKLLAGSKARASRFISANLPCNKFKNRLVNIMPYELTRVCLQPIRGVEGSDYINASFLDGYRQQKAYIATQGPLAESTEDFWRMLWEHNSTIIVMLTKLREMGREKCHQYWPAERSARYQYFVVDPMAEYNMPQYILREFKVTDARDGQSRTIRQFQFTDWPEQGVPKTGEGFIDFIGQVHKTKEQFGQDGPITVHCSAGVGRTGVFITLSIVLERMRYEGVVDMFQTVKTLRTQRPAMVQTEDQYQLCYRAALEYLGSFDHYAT

[22] = target: Receptor-type tyrosine-protein phosphatase alpha (Homo sapiens, UniProt P18433); assay: Inhibition of human PTPalpha assessed as inhibition constant
Chain of Receptor-type tyrosine-protein phosphatase alpha (P18433 whole entry, the tested form may be a part): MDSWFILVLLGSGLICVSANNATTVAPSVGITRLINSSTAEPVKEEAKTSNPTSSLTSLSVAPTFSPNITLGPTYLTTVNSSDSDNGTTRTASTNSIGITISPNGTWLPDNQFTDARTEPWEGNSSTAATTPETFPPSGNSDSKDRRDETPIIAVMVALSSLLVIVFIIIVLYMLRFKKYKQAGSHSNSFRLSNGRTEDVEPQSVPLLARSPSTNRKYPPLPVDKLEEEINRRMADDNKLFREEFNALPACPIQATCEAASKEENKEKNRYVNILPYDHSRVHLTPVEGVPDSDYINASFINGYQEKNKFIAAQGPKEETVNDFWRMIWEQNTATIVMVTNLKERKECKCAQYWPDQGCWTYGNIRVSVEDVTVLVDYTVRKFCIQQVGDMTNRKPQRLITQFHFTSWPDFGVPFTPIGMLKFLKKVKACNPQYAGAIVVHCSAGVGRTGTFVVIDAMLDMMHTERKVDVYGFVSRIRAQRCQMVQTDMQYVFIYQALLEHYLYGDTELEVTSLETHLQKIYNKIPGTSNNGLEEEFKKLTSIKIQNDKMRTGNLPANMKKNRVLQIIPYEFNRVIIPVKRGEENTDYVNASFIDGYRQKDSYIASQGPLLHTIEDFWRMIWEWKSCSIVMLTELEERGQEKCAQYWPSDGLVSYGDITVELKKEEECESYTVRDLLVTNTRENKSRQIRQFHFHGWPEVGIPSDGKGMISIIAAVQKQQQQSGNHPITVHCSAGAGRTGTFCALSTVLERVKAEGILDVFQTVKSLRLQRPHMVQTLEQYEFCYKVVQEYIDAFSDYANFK

[23] = target: T3, Tyrosine-protein phosphatase non-receptor type 1; assay: Inhibition of human recombinant PTP1B (1 to 321 residues) expressed in Escherichia coli BL21 (DE3) assessed as inhibition constant using pNPP as substrate by Michaelis-Menten analysis
[24] = target: Dual specificity protein phosphatase 3 (Homo sapiens, UniProt P51452); assay: Inhibition of human recombinant VHR expressed in Escherichia coli BL21 (DE3) assessed as inhibition constant using pNPP as substrate by stopped-flow spectrophotometer
Chain of Dual specificity protein phosphatase 3 (P51452 whole entry): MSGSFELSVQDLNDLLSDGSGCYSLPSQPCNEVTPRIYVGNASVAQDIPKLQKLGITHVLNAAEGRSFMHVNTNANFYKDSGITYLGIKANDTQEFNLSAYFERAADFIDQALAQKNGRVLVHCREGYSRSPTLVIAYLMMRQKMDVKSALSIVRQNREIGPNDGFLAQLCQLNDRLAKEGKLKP

[25] = Inhibition of ALR2 in rat lens using D,L-glyceraldehyde as substrate preincubated for 10 mins in presence of NADPH followed by substrate addition and measured after 20 mins by spectrophotometric assay; format: tissue-based
[26] = organism: Homo sapiens; assay: Selectivity ratio of Ki for human PTP1B expressed in Escherichia coli BL21 (DE3) to Ki for TCPTP (unknown origin)
[27] = organism: Homo sapiens; assay: Selectivity ratio of Ki for human PTP1B expressed in Escherichia coli BL21 (DE3) to Ki for LAR (unknown origin)
[28] = organism: Homo sapiens; assay: Selectivity ratio of Ki for human PTP1B expressed in Escherichia coli BL21 (DE3) to Ki for Calcineurin (unknown origin)
[29] = organism: Homo sapiens; assay: Selectivity ratio of Ki for human PTP1B expressed in Escherichia coli BL21 (DE3) to Ki for CD45 (unknown origin)
[30] = organism: Homo sapiens; assay: Selectivity ratio of Ki for human PTP1B expressed in Escherichia coli BL21 (DE3) to Ki for SHP-2 (unknown origin)
[31] = Inhibition of ALR2 in rat lens using D,L-glyceraldehyde as substrate in presence of NADPH; format: tissue-based
[32] = Inhibition of ALR2 in Sprague-Dawley rat lens using D,L-glyceraldehyde as substrate preincubated for 10 mins in presence of NADPH followed by substrate addition and measured after 5 mins by spectrophotometric assay; format: tissue-based
[33] = target: T3, Tyrosine-protein phosphatase non-receptor type 1; assay: Inhibition of human recombinant PTP1B expressed in Escherichia coli using pNPP as substrate by microplate reader assay
[34] = organism: Homo sapiens; assay: Selectivity ratio of IC50 for PTP1B (unknown origin) to IC50 for Protein phosphatase-lambda (unknown origin)
[35] = organism: Homo sapiens; assay: Selectivity ratio of IC50 for PTP1B (unknown origin) to IC50 for TCPTP (unknown origin)
[36] = organism: Homo sapiens; assay: Selectivity ratio of IC50 for PTP1B (unknown origin) to IC50 for LAR (unknown origin)
[37] = target: T3, Tyrosine-protein phosphatase non-receptor type 1; assay: Inhibition of PTP1B (unknown origin) using flurogenic substrate by fluorescence plate reader assay
[38] = organism: Homo sapiens; assay: Selectivity ratio of IC50 for PTP1B (unknown origin) to IC50 for PP1 (unknown origin)
[39] = organism: Homo sapiens; assay: Selectivity ratio of IC50 for PTP1B (unknown origin) to IC50 for YOP (unknown origin)
[40] = target: T3, Tyrosine-protein phosphatase non-receptor type 1; assay: Inhibition of human PTP1B (1 to 298 residues) expressed in Escherichia coli using FDP as substrate by microplate reader
[41] = organism: Homo sapiens; assay: Selectivity ratio of IC50 for human PTP1B (1 to 298 residues) expressed in Escherichia coli BL21 (DE3) to IC50 for TCPTP (unknown origin)

O=C(O)CCCCCN1N=C2c3ccsc3CCC2CC1=O (stereo unspecified)
IC50 [1]: 7.6 µM

Cc1cc2c(s1)CCC1CC(=O)N(CCCCCC(=O)O)N=C21 (stereo unspecified)
IC50 [1]: 18 µM

O=C(O)COc1cc(F)ccc1C(=S)NCc1ccc(Br)cc1F
IC50 [2]: 33 µM

O=C(O)CC1=CN(/C=C/c2ccc(O)c(O)c2)S(=O)(=O)c2ccccc21
IC50 [3]: 0.126 µM

N#Cc1ccc(CNC(=O)c2ccc(Cl)cc2OCC(=O)O)cc1
Ki [4]: 2 µM

Cc1noc(-c2ccc(C(C/C=C/c3ccccc3)(Cc3ccc(C(F)(F)P(=O)(O)O)cc3)n3nnc4ccccc43)cc2)n1 (stereo unspecified)
IC50 [5]: 1.6 µM | IC50 [6]: 0.163 µM

O=[N+]([O-])c1cc(Br)cc2c1NC=NS2(=O)=O
IC50 [7]: 4.6 µM

O=C(O)COc1ccc(-c2cc(NC(=O)C(=O)O)c(C(=O)O)s2)cc1
Ratio Ki [8]: 20 | Ratio Ki [9]: 20

CCCCCCCCCCCCCCC(=O)N[C@@H](Cc1ccc(C(F)(F)P(=O)(O)O)cc1)C(=O)N[C@@H](CC(=O)O)C(=O)N[C@@H](Cc1ccc(C(F)(F)P(=O)(O)O)cc1)C(N)=O
Ki [10]: 0.025 µM

COC(=O)c1c(O)cccc1OC/C=C/c1cccc(-c2onc(C(=O)O)c2CO)c1
Ratio Ki [11]: 20 | Ki [12]: 0.92 µM

Nc1ccc(CNC(=O)c2ccc(Cl)cc2OCC(=O)O)c(F)c1
IC50 [13]: 1.3 µM

O=C(O)COc1cc(F)ccc1C(=S)NCc1cccc([N+](=O)[O-])c1
IC50 [2]: 35 µM

O=C(O)CC1=CN(/C=C/c2ccc(O)cc2)S(=O)(=O)c2ccccc21
IC50 [3]: 0.094 µM

COc1ccc2c(c1)C=Cc1cc(OC)ccc1C2/C=C1\SC(=O)NC1=O
IC50 [14]: 3.4 µM

CC(C)NC(=O)NS(=O)(=O)c1ccc(-n2nc(-c3ccc(F)cc3)ccc2=O)cc1
IC50 [15]: 45 µM

O=C(O)Cn1c(=O)c(Cc2ccc(Br)cc2F)nc2ccc(F)cc21
IC50 [16]: 0.00644 µM

Cc1ccc(F)c(N(C)S(=O)(=O)C[N+](=O)[O-])c1
IC50 [17]: 0.35 µM

O=C(O)Cn1ccc(-c2nc3ccccc3s2)c1
IC50 [18]: 0.049 µM

CCCCCCS(=O)(=O)NC(=O)c1ccc(CSCc2ccc(-c3ccccc3)cc2)cc1
IC50 [19]: 0.28 µM

N#Cc1ccc(CNC(=O)c2ccc(Cl)cc2OCC(=O)O)cc1[N+](=O)[O-]
Ki [20]: 0.107 µM

COC(=O)c1c(O)cccc1OC/C=C/c1ccc(F)c(-c2cc(C(=O)O)no2)c1
Ratio Ki [11]: 20 | Ki [12]: 6.9 µM

COC(=O)c1c(O)cccc1OC/C=C/c1cccc(-c2onc(C(=O)O)c2N)c1
Ratio Ki [11]: 20 | Ki [12]: 2.1 µM

O=C(CCc1ccc(C(F)(F)P(=O)(O)O)cc1)Nc1cc(NC(=O)CCc2ccc(C(F)(F)P(=O)(O)O)cc2)cc(C(=O)NCCc2ccc(C(=O)O)cc2)c1
Ki [21]: 100 µM | Ki [22]: 120 µM | Ki [23]: 0.93 µM | Ki [24]: 3600 µM

Cc1ccc(C(=O)/C(=C/c2ccc(O)c(O)c2)C(=O)O)cc1
IC50 [25]: 0.49 µM

CC(=O)N[C@@H](Cc1ccc(N(C(=O)C(=O)O)c2ccccc2C(=O)O)c2ccccc12)C(=O)NCCCCCOc1cc2ccccc2cc1C(=O)O
Ratio Ki [26]: 2 | Ratio Ki [27]: 36 | Ratio Ki [28]: > 13000 | Ratio Ki [29]: 2700 | Ratio Ki [30]: 104

O=C1C(=O)N(C2(C(=O)O)CCCCC2)C(=O)N1Cc1ccc(Cl)cc1Cl
IC50 [31]: 0.05 µM

O=C(O)Cn1c2ccccc2n2c(=O)c(=O)n(Cc3ccccc3)nc12
IC50 [32]: 0.36 µM

O=C1CC2(C(=O)N1)c1ccc(O)cc1C=Cc1cc(O)ccc12
IC50 [14]: 3 µM

CC(=C\c1csc([C@@H](Cc2ccc(OCc3ccccc3)cc2)NC(=O)CC2CCCCC2)n1)/C=C(\C)C(=O)O
IC50 [33]: 2.48 µM

COC(=O)C(O)c1ccc(NC(=O)CCCCn2cc(COc3ccc(-c4cc(C(=O)O)no4)cc3)nn2)cc1 (stereo unspecified)
Ratio IC50 [34]: 10 | Ratio IC50 [35]: 10 | Ratio IC50 [36]: 10 | IC50 [37]: 4.7 µM | Ratio IC50 [38]: 10 | Ratio IC50 [39]: 10

O=C(O)Cn1cc(-c2nc3ccccc3s2)cc1C(=O)c1ccccc1
IC50 [18]: 0.045 µM

COC(CC(C)C)c1ccc2ccc(CC(Cc3ccc(C(F)(F)P(=O)(O)O)cc3)(c3ccccc3)n3nnc4ccccc43)c(P(=O)(O)O)c2n1 (stereo unspecified)
IC50 [40]: 0.005 µM | Ratio IC50 [41]: 7.2

O=c1c(/C=C/c2ccc(O)cc2)nc2ccc(F)cc2n1-c1cnn(O)c1
IC50 [32]: 0.107 µM
